Experimental data as given in the NIST ThermoML archive (doi:10.1016/j.jct.2018.10.015).

Experiment: xn = mol fraction of the nth substance listed
Settings: 101.3 kPa, Liquid; for viscosity: Concentric cylinders viscometry; for mass density: Vibrating tube method

CCn1cc[n+](C)c1C.O=S(=O)([N-]S(=O)(=O)C(F)(F)F)C(F)(F)F + CCOC(=O)OCC
Settings | mass density [kg/m3] | viscosity [mPa·s]
293.15 K, x1 = 0.1731 | 1150.1 | 3.168
293.15 K, x1 = 0.302 | 1242.2 | 6.382
293.15 K, x1 = 0.4028 | 1298.8 | 10.53
293.15 K, x1 = 0.4991 | 1343.7 | 16.14
293.15 K, x1 = 0.6093 | 1387 | 25.06
293.15 K, x1 = 0.7039 | 1418.8 | 35.42
293.15 K, x1 = 0.7951 | 1445.6 | 48.11
293.15 K, x1 = 0.8901 | 1470.6 | 64.72
293.15 K, x1 = 1 | 1495.8 | 89.88
298.15 K, x1 = 0.1731 | 1144.8 | 2.871
298.15 K, x1 = 0.302 | 1237.1 | 5.646
298.15 K, x1 = 0.4028 | 1293.7 | 9.149
298.15 K, x1 = 0.4991 | 1338.7 | 13.79
298.15 K, x1 = 0.6093 | 1382 | 21.02
298.15 K, x1 = 0.7039 | 1413.9 | 29.27
298.15 K, x1 = 0.7951 | 1440.8 | 39.24
298.15 K, x1 = 0.8901 | 1465.8 | 52.12
298.15 K, x1 = 1 | 1491 | 71.34
303.15 K, x1 = 0.1731 | 1139.5 | 2.615
303.15 K, x1 = 0.302 | 1232 | 5.032
303.15 K, x1 = 0.4028 | 1288.6 | 8.021
303.15 K, x1 = 0.4991 | 1333.7 | 11.9
303.15 K, x1 = 0.6093 | 1377.1 | 17.84
303.15 K, x1 = 0.7039 | 1409 | 24.52
303.15 K, x1 = 0.7951 | 1435.9 | 32.49
303.15 K, x1 = 0.8901 | 1461 | 42.65
303.15 K, x1 = 1 | 1486.3 | 57.64
308.15 K, x1 = 0.1731 | 1134.2 | 2.394
308.15 K, x1 = 0.302 | 1226.9 | 4.515
308.15 K, x1 = 0.4028 | 1283.6 | 7.089
308.15 K, x1 = 0.4991 | 1328.7 | 10.37
308.15 K, x1 = 0.6093 | 1372.2 | 15.31
308.15 K, x1 = 0.7039 | 1404.1 | 20.78
308.15 K, x1 = 0.7951 | 1431.1 | 27.23
308.15 K, x1 = 0.8901 | 1456.2 | 35.38
308.15 K, x1 = 1 | 1481.5 | 47.26
313.15 K, x1 = 0.1731 | 1128.9 | 2.201
313.15 K, x1 = 0.302 | 1221.7 | 4.076
313.15 K, x1 = 0.4028 | 1278.5 | 6.312
313.15 K, x1 = 0.4991 | 1323.7 | 9.113
313.15 K, x1 = 0.6093 | 1367.3 | 13.27
313.15 K, x1 = 0.7039 | 1399.3 | 17.81
313.15 K, x1 = 0.7951 | 1426.2 | 23.1
313.15 K, x1 = 0.8901 | 1451.4 | 29.72
313.15 K, x1 = 1 | 1476.7 | 39.24
318.15 K, x1 = 0.1731 | 1123.6 | 2.032
318.15 K, x1 = 0.302 | 1216.5 | 3.7
318.15 K, x1 = 0.4028 | 1273.5 | 5.657
318.15 K, x1 = 0.4991 | 1318.8 | 8.07
318.15 K, x1 = 0.6093 | 1362.4 | 11.6
318.15 K, x1 = 0.7039 | 1394.4 | 15.41
318.15 K, x1 = 0.7951 | 1421.4 | 19.8
318.15 K, x1 = 0.8901 | 1446.6 | 25.24
318.15 K, x1 = 1 | 1472 | 33
323.15 K, x1 = 0.1731 | 1118.3 | 1.882
323.15 K, x1 = 0.302 | 1211.3 | 3.375
323.15 K, x1 = 0.4028 | 1268.4 | 5.102
323.15 K, x1 = 0.4991 | 1313.8 | 7.196
323.15 K, x1 = 0.6093 | 1357.5 | 10.22
323.15 K, x1 = 0.7039 | 1389.6 | 13.45
323.15 K, x1 = 0.7951 | 1416.6 | 17.14
323.15 K, x1 = 0.8901 | 1441.8 | 21.66
323.15 K, x1 = 1 | 1467.2 | 28.05
328.15 K, x1 = 0.1731 | 1112.9 | 1.75
328.15 K, x1 = 0.302 | 1206.2 | 3.098
328.15 K, x1 = 0.4028 | 1263.4 | 4.633
328.15 K, x1 = 0.4991 | 1308.9 | 6.468
328.15 K, x1 = 0.6093 | 1352.5 | 9.095
328.15 K, x1 = 0.7039 | 1384.7 | 11.86
328.15 K, x1 = 0.7951 | 1411.8 | 15
328.15 K, x1 = 0.8901 | 1437 | 18.81
328.15 K, x1 = 1 | 1462.4 | 24.16
